Experimental data reported in ChEMBL document CHEMBL4825682, “Discovery of novel purinylthiazolylethanone derivatives as anti-Candida albicans agents through possible multifaceted mechanisms” (Eur J Med Chem, 2021).
≈ marks a conversion by molar mass, not a printed value.

Legend:
[1] = system: Candida albicans; assay: Antifungal activity against Candida albicans assessed as fungal growth inhibition by CLSI protocol based microbroth dilution method; assay type: functional
[2] = system: Candida albicans; assay: Antifungal activity against Candida albicans ATCC 90023 assessed as fungal growth inhibition by CLSI protocol based microbroth dilution method; assay type: functional
[3] = system: Candida tropicalis; assay: Antifungal activity against Candida tropicalis assessed as fungal growth inhibition by CLSI protocol based microbroth dilution method; assay type: functional
[4] = system: Aspergillus fumigatus; assay: Antifungal activity against Aspergillus fumigatus assessed as fungal growth inhibition by CLSI protocol based microbroth dilution method; assay type: functional
[5] = system: Candida parapsilosis; assay: Antifungal activity against Candida parapsilosis ATCC 22019 assessed as fungal growth inhibition by CLSI protocol based microbroth dilution method; assay type: functional; conditions: Lodderomyces parapsilosis
[6] = Hemolytic activity in human RBC; assay type: cell-based, Erythrocyte; conditions: human red blood cells (erythrocytes)

Row | Compound | MIC [1] | MIC [2] | MIC [3] | MIC [4] | MIC [5] | HC50 [6]
1 | CC(C)(C)OC(=O)N1CCN(C(=O)CN2CCN(c3ncnc4c3ncn4CC(=O)c3nccs3)CC2)CC1 | 32 µg/mL (≈ 57.6 µM) | 16 µg/mL (≈ 28.8 µM) | 64 µg/mL (≈ 115 µM) | 128 µg/mL (≈ 230 µM) | 128 µg/mL (≈ 230 µM) | > 256 µg/mL
2 | CCOC(=O)CN1CCN(c2ncnc3c2ncn3C/C(=N/OC)c2nccs2)CC1 | 8 µg/mL (≈ 18 µM) | 64 µg/mL (≈ 144 µM) | 64 µg/mL (≈ 144 µM) | 32 µg/mL (≈ 72 µM) | 128 µg/mL (≈ 288 µM) | > 256 µg/mL
3 | CCCCCCCCN1CCN(c2ncnc3c2ncn3CC(=O)c2nccs2)CC1 | 2 µg/mL (≈ 4.53 µM) | 256 µg/mL (≈ 580 µM) | 16 µg/mL (≈ 36.2 µM) | 64 µg/mL (≈ 145 µM) | 16 µg/mL (≈ 36.2 µM) | > 256 µg/mL
4 | CCN1CCN(c2ncnc3c2ncn3CC(=O)c2nccs2)CC1 | 32 µg/mL (≈ 89.5 µM) | 16 µg/mL (≈ 44.8 µM) | 16 µg/mL (≈ 44.8 µM) | 32 µg/mL (≈ 89.5 µM) | 256 µg/mL (≈ 716 µM) | > 256 µg/mL
5 | O=C(Cn1cnc2c(N3CCN(CCO)CC3)ncnc21)c1nccs1 | 1 µg/mL (≈ 2.68 µM) | 256 µg/mL (≈ 686 µM) | 64 µg/mL (≈ 171 µM) | 64 µg/mL (≈ 171 µM) | 128 µg/mL (≈ 343 µM) | > 256 µg/mL
6 | O=C(Cn1cnc2c(N3CCCCCC3)ncnc21)c1nccs1 | 256 µg/mL (≈ 748 µM) | 8 µg/mL (≈ 23.4 µM) | 256 µg/mL (≈ 748 µM) | 64 µg/mL (≈ 187 µM) | 256 µg/mL (≈ 748 µM) | > 256 µg/mL
7 | O=C(Cn1cnc2c(N3CCN(Cc4ccc(Cl)cc4)CC3)ncnc21)c1nccs1 | 32 µg/mL (≈ 70.5 µM) | 128 µg/mL (≈ 282 µM) | 4 µg/mL (≈ 8.81 µM) | 64 µg/mL (≈ 141 µM) | 64 µg/mL (≈ 141 µM) | > 256 µg/mL
8 | Cc1ccc(CN2CCN(c3ncnc4c3ncn4CC(=O)c3nccs3)CC2)cc1 | 16 µg/mL (≈ 36.9 µM) | 128 µg/mL (≈ 295 µM) | 64 µg/mL (≈ 148 µM) | 64 µg/mL (≈ 148 µM) | 64 µg/mL (≈ 148 µM) | > 256 µg/mL
9 | O=C(Cn1cnc2c(N3CCN(Cc4ccc([N+](=O)[O-])cc4)CC3)ncnc21)c1nccs1 | 8 µg/mL (≈ 17.2 µM) | 128 µg/mL (≈ 276 µM) | 64 µg/mL (≈ 138 µM) | 32 µg/mL (≈ 68.9 µM) | 64 µg/mL (≈ 138 µM) | > 256 µg/mL
10 | O=C(Cn1cnc2c(N3CCN(CC(=O)N(C4CCCCC4)C4CCCCC4)CC3)ncnc21)c1nccs1 | 8 µg/mL (≈ 14.5 µM) | 256 µg/mL (≈ 465 µM) | 16 µg/mL (≈ 29.1 µM) | 32 µg/mL (≈ 58.1 µM) | 16 µg/mL (≈ 29.1 µM) | > 256 µg/mL
11 | N#CCN(CC#N)C(=O)CN1CCN(c2ncnc3c2ncn3CC(=O)c2nccs2)CC1 | 16 µg/mL (≈ 34.4 µM) | 32 µg/mL (≈ 68.9 µM) | 64 µg/mL (≈ 138 µM) | 64 µg/mL (≈ 138 µM) | 128 µg/mL (≈ 276 µM) | > 256 µg/mL
12 | CCOC(=O)CN1CCN(c2ncnc3c2ncn3C/C(=N/O)c2nccs2)CC1 | 4 µg/mL (≈ 9.29 µM) | 16 µg/mL (≈ 37.2 µM) | 64 µg/mL (≈ 149 µM) | 16 µg/mL (≈ 37.2 µM) | 64 µg/mL (≈ 149 µM) | > 256 µg/mL
13 | O=C(Cn1cnc2c(N3CCN(Cc4ccccc4Cl)CC3)ncnc21)c1nccs1 | 256 µg/mL (≈ 564 µM) | 2 µg/mL (≈ 4.41 µM) | 256 µg/mL (≈ 564 µM) | 64 µg/mL (≈ 141 µM) | 256 µg/mL (≈ 564 µM) | > 256 µg/mL
14 | O=C(Cn1cnc2c(N3CCN(Cc4ccccc4F)CC3)ncnc21)c1nccs1 | 256 µg/mL (≈ 585 µM) | 2 µg/mL (≈ 4.57 µM) | 256 µg/mL (≈ 585 µM) | 32 µg/mL (≈ 73.1 µM) | 256 µg/mL (≈ 585 µM) | > 256 µg/mL
15 | O=C(Cn1cnc2c(Cl)ncnc21)c1nccs1 | 64 µg/mL (≈ 229 µM) | 128 µg/mL (≈ 458 µM) | 32 µg/mL (≈ 114 µM) | 128 µg/mL (≈ 458 µM) | 64 µg/mL (≈ 229 µM) | > 256 µg/mL
16 | CCCCN1CCN(c2ncnc3c2ncn3CC(=O)c2nccs2)CC1 | 4 µg/mL (≈ 10.4 µM) | 64 µg/mL (≈ 166 µM) | 128 µg/mL (≈ 332 µM) | 256 µg/mL (≈ 664 µM) | 64 µg/mL (≈ 166 µM) | > 256 µg/mL
